Values belong to the compound of their own block, whether it stands above or below them.
Tests used:
[1] = target: T1, glutathione S-transferase (GST)-linked full-length human Syk protein (Homo sapiens, UniProt P43405); test: Syk enzyme assay; type: biochemical; details: 0.83 nM Syk, time-resolved fluorescence; read-out: IC50 of Syk-inhibitory activity
T1 construct: glutathione S-transferase (GST)-linked full-length human Syk protein; purchased Carna Biosciences; host or cells: Baculovirus expression system
Summary of the method: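 Phosphotyrosine on a biotin-peptide substrate (0.5 μM) was read by time-resolved fluorescence at 615 and 665 nm with Eu-anti-pTyr antibody and APC-streptavidin after 1 h EDTA stop.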

[2] = tested on: THP-1 cells (TNFα secretion on human IgG-coated plate); test: TNFα generation assay; type: cell-based; details: IFN-γ differentiated THP-1 cells, 7 hours, AlphaLISA, read-out: IC50 of TNFα generation inhibitory activity
Summary of the method: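 Secreted TNFα was measured by AlphaLISA after 7 h of culture on human IgG-coated wells (coating at 10 μg/ml), with 5×10^4 cells/well. Before plating, the cells had been treated with compound for 30 min at room temperature. The cells were macrophage-like THP-1, produced by a 2-day exposure to 10 ng/ml IFN-γ.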

[3] = tested on: THP-1 cells (phagocytosis of opsonized Escherichia coli); test: Antibody-dependent phagocytosis assay; type: cell-based; details: Homo sapiens; IFNγ differentiated THP-1 cells, opsonized pHrodo Escherichia coli, 3 hours; read-out: IC50 upon phagocytosis inhibition
Summary of the method: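 Read-out was imaging-based quantification of pHrodo-labeled, antibody-opsonized E. coli taken up by Calcein AM-stained viable cells after 3 h at 37° C. The cells were IFNγ-differentiated THP-1 macrophages (10 ng/ml, 2 days), preincubated with compound for 30 min at room temperature.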

SMILES: Cc1cccc(Nc2nc(N[C@H](C3CC3)[C@H](C)N)c(F)cc2C(N)=O)c1 [Example 2-44, 6-(((1R,2S)-2-amino-1-cyclopropylpropyl)amino)-5-fluoro-2-(m-tolylamino)nicotinamide]
- IC50 [1]: < 10 nM
- IC50 [2]: 65 to 130 nM
- IC50 [3]: < 1000 nM

SMILES: CC[C@@H](Nc1nc(Nc2ccc3c(c2)c(OC)nn3CC)c(C(N)=O)cc1F)[C@H](C)N [Example 2-52, 6-(((2S,3R)-2-aminopentan-3-yl)amino)-2-((1-ethyl-3-methoxy-1H-indazol-5-yl)amino)-5-fluoronicotinamide]
- IC50 [1]: < 10 nM
- IC50 [2]: 130 to 200 nM
- IC50 [3]: < 1000 nM

SMILES: COc1nn(CC(F)F)c2ccc(Nc3nc(N[C@H](C4CC4)[C@H](C)N)c(F)cc3C(N)=O)cc12 [Example 2-74, 6-(((1R,2S)-2-amino-1-cyclopropylpropyl)amino)-2-((1-(2,2-difluoroethyl)-3-methoxy-1H-indazol-5-yl)amino)-5-fluoronicotinamide]
- IC50 [1]: < 10 nM
- IC50 [2]: 65 to 130 nM
- IC50 [3]: < 1000 nM

SMILES: CCC[C@@H](Nc1nc(Nc2cccc3c2cnn3CC)c(C(N)=O)cc1F)[C@H](C)N [Example 2-96, 6-(((2S,3R)-2-aminohexan-3-yl)amino)-2-((1-ethyl-1H-indazol-4-yl)amino)-5-fluoronicotinamide]
- IC50 [1]: < 10 nM
- IC50 [2]: 130 to 200 nM
- IC50 [3]: < 1000 nM

SMILES: CCn1ncc2c(Nc3nc(N[C@H](C4CCC4)[C@H](C)N)c(F)cc3C(N)=O)cccc21 [Example 2-98, 6-(((1R,2S)-2-amino-1-cyclobutylpropyl)amino)-2-((1-ethyl-1H-indazol-4-yl)amino)-5-fluoronicotinamide]
- IC50 [1]: < 10 nM
- IC50 [2]: 130 to 200 nM
- IC50 [3]: < 1000 nM

SMILES: COC[C@@H](Nc1nc(Nc2ccc3c(c2)c(OC)nn3C)c(C(N)=O)cc1F)[C@H](C)N [Example 2-121, 6-(((2S,3S)-3-amino-1-methoxybutan-2-yl)amino)-5-fluoro-2-((3-methoxy-1-methyl-1H-indazol-5-yl)amino)nicotinamide]
- IC50 [1]: < 10 nM
- IC50 [2]: 130 to 200 nM
- IC50 [3]: 1000 to 3000 nM

SMILES: CCC[C@@H](Nc1nc(Nc2ccc3c(c2)c(OC)nn3CCOC)c(C(N)=O)cc1F)[C@H](C)N [Example 2-126, 6-(((2S,3R)-2-aminohexan-3-yl)amino)-5-fluoro-2-((3-methoxy-1-(2-methoxyethyl)-1H-indazol-5-yl)amino)nicotinamide]
- IC50 [1]: < 10 nM
- IC50 [2]: 65 to 130 nM
- IC50 [3]: < 1000 nM

The next lines start with the values.

- IC50 [1]: < 10 nM
- IC50 [2]: 130 to 200 nM
- IC50 [3]: < 1000 nM
SMILES: CCn1nc(OC)c2cc(Nc3nc(N[C@H](CC(C)C)[C@H](C)N)c(F)cc3C(N)=O)ccc21 [Example 2-51, 6-(((2S,3R)-2-amino-5-methylhexan-3-yl)amino)-2-((1-ethyl-3-methoxy-1H-indazol-5-yl)amino)-5-fluoronicotinamide]

- IC50 [1]: 10 to 50 nM
- IC50 [2]: 130 to 200 nM
- IC50 [3]: < 1000 nM
SMILES: COc1ncc(Nc2nc(N[C@H](CC(C)C)[C@H](C)N)c(F)cc2C(N)=O)cc1F [Example 2-66, 6-(((2S,3R)-2-amino-5-methylhexan-3-yl)amino)-5-fluoro-2-((5-fluoro-6-methoxypyridin-3-yl)amino)nicotinamide]

- IC50 [1]: < 10 nM
- IC50 [2]: 130 to 200 nM
- IC50 [3]: 1000 to 3000 nM
SMILES: CC(C)C[C@@H](Nc1nc(Nc2cncc(-n3cccn3)c2)c(C(N)=O)cc1F)[C@H](C)N [Example 2-70, 2-((5-(1H-pyrazol-1-yl)pyridin-3-yl)amino)-6-(((2S,3R)-2-amino-5-methylhexan-3-yl)amino)-5-fluoronicotinamide]

- IC50 [1]: < 10 nM
- IC50 [2]: 130 to 200 nM
- IC50 [3]: 1000 to 3000 nM
SMILES: COc1ncc(Nc2nc(N[C@H](C3CCC3)[C@H](C)N)c(F)cc2C(N)=O)cc1-n1nccn1 [Example 2-114, 6-(((1R,2S)-2-amino-1-cyclobutylpropyl)amino)-5-fluoro-2-((6-methoxy-5-(2H-1,2,3-triazol-2-yl)pyridin-3-yl)amino)nicotinamide]

Source: patent US9051310B2, “Nicotinamide derivative or salt thereof” (FUJIFILM Corporation, priority 2011, dated 2015)
